The source of these data is PubChem BioAssay (NCI).

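Where inhibition never reached the appropriate level, the endpoint shown equals the highest concentration tested. Otherwise, values were interpolated linearly from a five-concentration, 48-hour dose response in 96-well plates. TGI marks complete inhibition of growth.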

What all share (experiment): NCI-60 cell line screen, 48 h
The test system of assay [1] is OVCAR-3 ovarian.
The subject of assay [2] is OVCAR-8 ovarian.
For assay [3], the system named is HS 578T breast.
The test system of assay [4] is HT29 colon.
In assay [5] the test system is SF-295 CNS.
Assay [6] deals with LOX IMVI melanoma.
For assay [7], the system named is SK-MEL-2 melanoma.
Assay [8] concerns HCT-15 colon.
For assay [9], the system named is OVCAR-4 ovarian.
In assay [10] the test system is MDA-MB-435.
Assay [11] has as its system SK-MEL-28 melanoma.
Assay [12] has as its system SNB-75 CNS.
Assay [13] deals with TK-10 renal.
The subject of assay [14] is 786-0 renal.
For assay [15], the system named is PC-3 prostate.
Assay [16] concerns HL-60(TB) leukemia.
For assay [17], the system named is IGROV1 ovarian.
Assay [18] has as its system HCC-2998 colon.
Assay [19] has as its system K-562 leukemia.
Assay [20] relates to CCRF-CEM leukemia.

For the molecule `Cc1cccnc1/N=C/c1c(O)n(C)c(=O)[nH]c1=O`, the TGI in assay [1], in assay [2], in assay [3], in assay [4], in assay [5] and in [6] was more than 100 µM throughout. Besides, the TGI in assay [7], in [8], in assay [9], in assay [10], in [11] and in assay [12] was more than 100 µM in each case. Also, the TGI in assay [13], in [14], in assay [15], in assay [16] and in [17] was more than 100 µM in each case.
Turning to `C=C(Br)N(CC)CC`, the TGI in assay [1], in [2], in assay [4], in assay [18], in [5] and in assay [6] was more than 100 µM throughout. Further, the TGI in assay [7], in [8], in assay [9], in assay [11], in assay [19] and in [12] was more than 100 µM each time. Besides, the TGI in assay [13], in assay [14], in assay [20], in assay [16] and in [17] was more than 100 µM in each case.
For `COc1ccc(/C=c2\sc3n(c2=O)C(N)=C(C#N)C(c2ccc(OC)cc2)C=3c2nc3ccccc3[nH]2)cc1` (stereo not given), the TGI in assay [1] is 44.3 µM; in assay [18], 64.3 µM; in assay [6], 35.2 µM; in [7] it was 61.5 µM; in assay [8] it was 59.2 µM; in [9] it was more than 100 µM. In addition, the TGI in assay [11] is 56.1 µM; in assay [19], more than 100 µM; in [12] it was more than 100 µM; in assay [13], 66.5 µM; in assay [14] it was more than 100 µM; in assay [20] it was more than 100 µM. Besides, the TGI in [16] and in [17] was more than 100 µM throughout.
For the molecule `Cc1ccc(OC2CC(n3cnc4ncnc(Cl)c43)OC2Oc2ccc(C)cc2)cc1` (stereo not given), the TGI is 33.9 µM in [1]; 26.8 µM in [2]; 76.9 µM in [3]; more than 100 µM in [4]; 24.9 µM in assay [18]; 56.7 µM in [5]. Also, the TGI in assay [6] was more than 100 µM; in assay [7], 32.2 µM; in assay [8], more than 100 µM; in assay [9], more than 100 µM; in [10], more than 100 µM; in assay [11], more than 100 µM. The TGI in assay [12] was 69.1 µM; in assay [13], more than 100 µM; in [14], more than 100 µM; in assay [15], 36.3 µM; in assay [16], more than 100 µM; in assay [17] it was 55 µM.
On to `N#C/C(=C\c1cc(Cl)cc(Cl)c1)c1ccccn1`, for which the TGI in [1], in assay [2], in assay [4], in assay [18], in assay [5] and in [7] was more than 100 µM in each case. Also, the TGI in assay [8] was more than 100 µM; in assay [9], more than 100 µM; in assay [11] it was more than 100 µM; in assay [19] it was more than 100 µM; in [12], 36 µM; in assay [13] it was more than 100 µM. In addition, the TGI in assay [14], in assay [20], in assay [15], in [16] and in assay [17] was more than 100 µM throughout.
For `CCC1CN2CCc3c([nH]c4ccccc34)C2C[C@@H]1CC(=O)N(C)C` (stereo not given in full), the TGI in assay [1], in assay [2], in assay [4], in assay [18], in assay [5] and in assay [6] was more than 100 µM each time. In addition, the TGI in [7] was more than 100 µM; in assay [8], more than 100 µM; in [9] it was more than 100 µM; in assay [11], more than 100 µM; in assay [19] it was more than 100 µM; in assay [12] it was 92.6 µM. In addition, the TGI in [13], in assay [14], in assay [20], in [16] and in assay [17] was more than 100 µM each time.
Regarding `N=c1c2c(-c3ccccc3)c[nH]c2ncn1N`, the TGI in [1], in assay [2], in assay [4], in assay [18], in assay [5] and in assay [6] was more than 100 µM in each case. For the same molecule, the TGI in assay [7], in assay [8], in assay [9], in [10], in assay [11] and in [19] was more than 100 µM each time. The TGI in assay [12], in [13], in assay [14], in [20], in assay [15] and in [16] was more than 100 µM in each case. In assay [17], this molecule yielded a TGI of more than 100 µM.
As for `Cc1ccc(S(=O)(=O)OCC23CCC(CC2)C2CC23)cc1` (stereo not given), the TGI in assay [1], in assay [2], in assay [4], in assay [18], in assay [5] and in assay [6] was more than 100 µM each time. Further, the TGI was more than 100 µM in assay [8]; more than 100 µM in assay [9]; more than 100 µM in assay [11]; more than 100 µM in [19]; 40.6 µM in assay [12]; more than 100 µM in assay [13]. In addition, the TGI in [14] was more than 100 µM; in [20], more than 100 µM; in assay [16], 39.1 µM; in assay [17], more than 100 µM.
